Columns and labels:
human Nav1.7 = human Nav1.7 (Homo sapiens (Human), UniProt Q15858); test: FLIPR or FLIPR TETRA sodium dye assay with KCl and test article pre-incubation (sodium mobilization); assay type: cell-based; conditions: recombinant human Nav1.7 in HEK293; veratridine and scorpion venom as agonists
hNav1.7 = hNav1.7 (Homo sapiens (Human), UniProt Q15858); test: Electrophysiology (EP) assay, whole-cell patch clamp in hNav1.7 expressing HEK-293 cells; assay type: cell-based; conditions: hNav1.7 HEK-293 cells; affinity for the inactivated state of the channel; read-out: Nav1.7 Activity (μM) EP assay Ki
Sequence of hNav1.7 (Q15858 other isoform, or with tags, fused parts or gaps): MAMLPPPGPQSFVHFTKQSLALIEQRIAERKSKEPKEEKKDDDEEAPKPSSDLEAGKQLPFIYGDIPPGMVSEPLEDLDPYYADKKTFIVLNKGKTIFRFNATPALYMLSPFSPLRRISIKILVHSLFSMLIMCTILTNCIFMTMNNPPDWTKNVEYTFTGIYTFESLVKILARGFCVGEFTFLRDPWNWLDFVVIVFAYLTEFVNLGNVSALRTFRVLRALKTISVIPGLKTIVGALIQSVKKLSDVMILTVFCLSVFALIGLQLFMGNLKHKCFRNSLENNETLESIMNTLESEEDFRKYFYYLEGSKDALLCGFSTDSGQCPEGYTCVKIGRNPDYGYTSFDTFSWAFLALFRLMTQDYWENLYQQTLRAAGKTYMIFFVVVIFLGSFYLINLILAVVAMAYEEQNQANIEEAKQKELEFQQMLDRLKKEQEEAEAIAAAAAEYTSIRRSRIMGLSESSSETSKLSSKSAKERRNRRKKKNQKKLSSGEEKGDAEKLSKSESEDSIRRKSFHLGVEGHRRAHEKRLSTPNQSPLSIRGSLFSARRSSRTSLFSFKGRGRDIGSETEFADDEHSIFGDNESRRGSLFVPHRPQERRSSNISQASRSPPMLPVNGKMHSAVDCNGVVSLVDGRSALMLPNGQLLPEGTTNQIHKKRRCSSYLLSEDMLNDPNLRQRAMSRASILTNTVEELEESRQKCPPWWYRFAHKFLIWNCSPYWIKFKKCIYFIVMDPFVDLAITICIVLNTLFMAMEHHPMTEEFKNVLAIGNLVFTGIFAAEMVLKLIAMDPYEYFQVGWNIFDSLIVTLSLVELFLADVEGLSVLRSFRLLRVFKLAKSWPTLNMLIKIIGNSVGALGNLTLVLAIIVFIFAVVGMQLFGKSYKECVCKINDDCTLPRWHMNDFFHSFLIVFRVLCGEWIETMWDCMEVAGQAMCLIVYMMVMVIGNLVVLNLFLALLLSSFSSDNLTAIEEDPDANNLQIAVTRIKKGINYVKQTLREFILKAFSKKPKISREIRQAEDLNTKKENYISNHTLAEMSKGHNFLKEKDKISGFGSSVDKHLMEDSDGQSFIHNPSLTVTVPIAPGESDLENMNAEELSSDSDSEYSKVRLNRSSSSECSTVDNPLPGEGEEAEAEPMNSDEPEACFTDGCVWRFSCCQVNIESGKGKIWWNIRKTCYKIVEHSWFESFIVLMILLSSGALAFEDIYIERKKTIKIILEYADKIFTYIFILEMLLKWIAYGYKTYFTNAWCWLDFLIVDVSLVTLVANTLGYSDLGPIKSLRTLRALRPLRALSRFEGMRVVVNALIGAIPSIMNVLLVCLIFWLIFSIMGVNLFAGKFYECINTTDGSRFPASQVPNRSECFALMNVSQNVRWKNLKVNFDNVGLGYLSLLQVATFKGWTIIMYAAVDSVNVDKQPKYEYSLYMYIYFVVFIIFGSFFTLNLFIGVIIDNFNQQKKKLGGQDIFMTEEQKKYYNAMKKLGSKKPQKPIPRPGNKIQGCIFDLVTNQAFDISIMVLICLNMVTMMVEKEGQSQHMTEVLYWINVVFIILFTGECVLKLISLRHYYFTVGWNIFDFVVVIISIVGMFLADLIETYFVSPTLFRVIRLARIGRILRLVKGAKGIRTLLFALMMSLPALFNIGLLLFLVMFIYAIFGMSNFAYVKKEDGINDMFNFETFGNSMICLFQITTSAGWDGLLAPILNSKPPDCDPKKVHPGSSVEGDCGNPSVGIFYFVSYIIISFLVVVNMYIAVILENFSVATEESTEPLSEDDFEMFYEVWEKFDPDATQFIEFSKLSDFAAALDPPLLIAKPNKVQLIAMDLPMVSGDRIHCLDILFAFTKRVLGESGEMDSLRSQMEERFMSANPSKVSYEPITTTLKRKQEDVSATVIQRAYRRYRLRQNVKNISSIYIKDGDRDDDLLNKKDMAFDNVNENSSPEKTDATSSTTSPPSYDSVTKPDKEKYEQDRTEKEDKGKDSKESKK

Sequence of human Nav1.7 (Q15858 with tags, fused parts or gaps limits assumed): as the sequence (Q15858 other isoform, or with tags, fused parts or gaps) above

SMILES	IC50 (human Nav1.7) [µM]	Ki (hNav1.7) [µM]
C[C@H](Nc1cc(C(N)=O)nc(N2CCc3c(cccc3-c3ccc(C(F)(F)F)cc3)C2)n1)C(N)=O [Compound 22, (S)-6-((1-amino-1-oxopropan-2-yl)amino)-2-(5-(4-(trifluoromethyl)phenyl)-3,4-dihydroisoquinolin-2(1H)-yl)pyrimidine-4-carboxamide]	0.428 ± 0.069	0.317 ± 0.079
C[C@H](Nc1cc(C(N)=O)nc(N2CCc3c(cccc3-c3ccc(C(F)(F)F)cn3)C2)n1)C(N)=O [Compound 23, (S)-6-((1-amino-1-oxopropan-2-yl)amino)-2-(5-(5-(trifluoromethyl)-pyridin-2-yl)-3,4-dihydroisoquinolin-2(1H)-yl)pyrimidine-4-carboxamide]	> 20	–
C[C@H](Nc1cc(C(N)=O)nc(N2CCc3c(cccc3-c3ccccc3C(F)(F)F)C2)n1)C(N)=O [Compound 24, (S)-6-((1-amino-1-oxopropan-2-yl)amino)-2-(5-(2-(trifluoromethyl)-phenyl)-3,4-dihydroisoquinolin-2(1H)-yl)pyrimidine-4-carboxamide]	2.35 ± 0.125	–
NC(=O)c1cccc(N2CCc3c(cccc3-c3ccc(C(F)(F)F)cc3)C2)n1 [Compound 25, 6-(5-(4-(trifluoromethyl)phenyl)-3,4-dihydroisoquinolin-2(1H)-yl)picolinamide]	0.987 ± 0.072	–
NC(=O)[C@@H](O)[C@H](O)c1cccc(N2CCc3c(cccc3-c3ccc(C(F)(F)F)cc3)C2)n1 [Compound 26, (2S,3R)-2,3-dihydroxy-3-(6-(5-(4-(trifluoromethyl)phenyl)-3,4-dihydroisoquinolin-2(1H)-yl)pyridin-2-yl)propanamide]	0.251 ± 0.017	0.051 ± 0.014
C[C@H](Nc1cc(C(N)=O)nc(N2CCc3c(cccc3-c3cccc(C(F)(F)F)c3)C2)n1)C(N)=O [Compound 27, (S)-6-((1-amino-1-oxopropan-2-yl)amino)-2-(5-(3-(trifluoromethyl)phenyl)-3,4-dihydroisoquinolin-2(1H)-yl)pyrimidine-4-carboxamide]	1.52 ± 0.122	0.24 ± 0.041
C[C@H](Nc1cc(C(N)=O)nc(N2CCc3c(cccc3C3=CCCCC3)C2)n1)C(N)=O [Compound 28, (S)-6-((1-amino-1-oxopropan-2-yl)amino)-2-(5-(cyclohex-1-en-1-yl)-3,4-dihydroisoquinolin-2(1H)-yl)pyrimidine-4-carboxamide]	2.84 ± 0.112	–
O=S(=O)(Nc1ncns1)c1cccc(N2CCc3c(cccc3-c3ccc(C(F)(F)F)cc3)C2)n1 [Compound 29, N-(1,2,4-thiadiazol-5-yl)-6-(5-(4-(trifluoromethyl)phenyl)-3,4-dihydroisoquinolin-2(1H)-yl)pyridine-2-sulfonamide]	0.291 ± 0.019	0.535 ± 0.145
C[C@H](Nc1cc(C(N)=O)nc(N2CCc3c(cccc3C3CCCCC3)C2)n1)C(N)=O [Compound 31, (S)-6-((1-amino-1-oxopropan-2-yl)amino)-2-(5-cyclohexyl-3,4-dihydroisoquinolin-2(1H)-yl)pyrimidine-4-carboxamide]	2.2 ± 0.898	–
NC(=O)c1cc(N2CCc3c(cccc3-c3ccc(C(F)(F)F)cc3)C2)cc([C@H](O)CO)n1 [Compound 35, (S)-6-(1,2-dihydroxyethyl)-4-(5-(4-(trifluoromethyl)phenyl)-3,4-dihydroisoquinolin-2(1H)-yl)picolinamide]	0.502 ± 0.031	0.232 ± 0.065
NC(=O)c1cc(N2CCc3c(cccc3-c3ccc(C(F)(F)F)cc3)C2)cc([C@@H](O)CO)n1 [Compound 36, (R)-6-(1,2-dihydroxyethyl)-4-(5-(4-(trifluoromethyl)phenyl)-3,4-dihydro-isoquinolin-2(1H)-yl)picolinamide]	1.54 ± 0.229	0.257 ± 0.046

Reference: US10738026B2, “Isoquinoline derivatives and use thereof” (Purdue Pharma L.P., priority 2014, dated 2020)
